Source: patent US8436007B2, “Inhibitors of protein kinases” (Ingenium Pharmaceuticals GmbH, priority 2007, dated 2013)
Entries after “also recorded” stand apart in the source; their conditions may differ.

How the values were obtained:
[1] = tested on: IL6 expression in LPS induced THP-1 macrophages; experiment: In vitro THP-1 assay: IL6 expression in LPS-induced THP-1 macrophages (ELISA of supernatant); assay type: cell-based, human; settings: differentiated THP-1 cells, 60 min pre-incubation with compound (0.5 to 5 μM), 100 ng/ml LPS for 4-48 h, triplicates
Method: (§1) The human THP-1 cell line can be utilized as an in vitro model of cytokine expression as mediated by Lipopolysaccharide (LPS) or Tumor Necrosis Factorα [TNFα]. Monocytic THP-1 cells (ATCC; TIB-202) can be differentiated into macrophage-like cells expressing pro-inflammatory cytokines like TNFα, IL6 and IL1β upon induction with LPS or by TNFα (autocrine induction) itself. THP-1 cells are grown in modified RPMI-1640 medium (ATCC, Cat. No. 30-2001) supplemented with 10% FCS and 1% Pen/Strep. For cytokine inhibition assays, cells are seeded at a density of 5×10^5 cells/ml into 6-well plates in standard growth medium supplemented with 100 ng/ml PMA (Sigma, P1585) to induce differentiation into macrophage-like cells. After 24 hours, the medium is replaced with standard growth medium (without PMA) and the cells are incubated for another 48 hours to complete differentiation. After 72 h of differentiation, the medium is replaced with serum free growth medium, and CDK-inhibiting compounds as well as reference compounds such as positive and negative controls, each dissolved in DMSO are added at concentrations ranging from 0.5 to 5 μM (final concentration of DMSO in the well is 0.1%). Cells are incubated for 60 min with compounds prior to stimulation with 100 ng/ml LPS (Sigma, L2630) for another 4-48 hours. Supernatants are collected and assayed immediately for cytokine expression, e.g. for TNFα, IL-6 and IL-1b using commercially available sandwich ELISA assays (eBioscience, Cat. No 88-7346, 88-7066, 88-7010) or kept frozen at […] until evaluation. Concentrations of TNFα, IL6 and IL1β within the cell culture supernatants are measured by using commercial ELISA Kits (eBioscience) according to the manufacturers' instructions. CDK-inhibitory compounds #1, 5, 6, 8, and 9 were administered at to differentiated THP-1 cells in triplicates as described above (see section 2.). After 60 min of pre-incubation with test or reference compound (SB203580, a p38 inhibitor and BMS345541, an IKK-inhibitor) alone, cells were stimulated with LPS. After incubation for 4-48 h, supernatants were collected and ELISA based determinations of cytokine supernatant concentrations were performed as described in section 3, supra.

[2] = tested on: TNFα expression in LPS induced THP-1 macrophages; experiment: In vitro THP-1 assay: TNFα expression in LPS-induced THP-1 macrophages (ELISA of supernatant); assay type: cell-based, human; settings: differentiated THP-1 cells, 60 min pre-incubation with compound (0.5 to 5 μM), 100 ng/ml LPS for 4-48 h, triplicates
Method: as §1

| Compound | inhibition of IL6 protein concentration in the cell supernatant compared to vehicle (DMSO) [1] | inhibition of TNFα expression / protein concentration in the cell supernatant compared to vehicle (DMSO) [2] |
| --- | --- | --- |
| COc1ccccc1-c1ccnc(Nc2cccc(CS(=O)(=O)N(C)CCO)c2)n1 [Compound 8, N-(2-Hydroxy-ethyl)-C-{3-[4-(2-methoxy-phenyl)-pyrimidin-2-ylamino]-phenyl}-N-methyl-methanesulfonamide] | significant inhibitory effect | significant inhibitory effect; also recorded: significant inhibition |
| COc1cc(F)ccc1-c1ccnc(Nc2cccc(CS(N)(=O)=O)c2)n1 [Compound 5, {3-[4-(4-Fluoro-2-methoxy-phenyl)-pyrimidin-2-ylamino]-phenyl}-methanesulfonamide] | significant inhibitory effect | significant inhibitory effect; also recorded: significant inhibition |
| COc1ccccc1-c1ccnc(Nc2cccc(CS(=O)(=O)CCO)c2)n1 [Compound 9, 2-{3-[4-(2-Methoxy-phenyl)-pyrimidin-2-ylamino]-phenylmethanesulfonyl}-ethanol] | significant inhibitory effect | significant inhibitory effect; also recorded: significant inhibition |
| COc1ccccc1-c1ccnc(Nc2cccc(CS(N)(=O)=O)c2)n1 [Compound 1, {3-[4-(2-Methoxy-phenyl)-pyrimidin-2-ylamino]-phenyl}-methanesulfonamide] | significant inhibitory effect | significant inhibitory effect; also recorded: significant inhibition |
| COc1ccccc1-c1ccnc(Nc2cccc(CS(=O)(=O)NC3CC3)c2)n1 [Compound 6, N-Cyclopropyl-C-{3-[4-(2-methoxy-phenyl)-pyrimidin-2-ylamino]-phenyl}-methanesulfonamide] | significant inhibitory effect | significant inhibitory effect; also recorded: significant inhibition |
